The values below come from PubChem BioAssay (NCI).

Among the test systems are M14 melanoma; MOLT-4 leukemia; NCI-H23 lung; OVCAR-4 ovarian; SK-MEL-5 melanoma; U251 CNS; UO-31 renal.
What all share (experiment): NCI-60 cell line screen, 48 h

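In this assay, cells in 96-well plates receive the compound at five concentrations for 48 hours. Endpoints are linearly interpolated between the surrounding concentrations. GI50 = concentration required for 50% inhibition of growth. TGI: total growth inhibition.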

As to `O=C(O)CCC(NC(=O)c1ccc(Nc2nc3ccccc3nc2-c2cccs2)cc1)C(=O)O` (stereo not given), the TGI in the assay on M14 melanoma, with MOLT-4 leukemia, in the assay on NCI-H23 lung, in the assay on OVCAR-4 ovarian, in the assay with SK-MEL-5 melanoma and in the assay with U251 CNS was more than 100 µM throughout. The compound further displayed a TGI in the assay on UO-31 renal of more than 100 µM.
Consider `COC(=O)c1ccccc1NC(=O)C(=O)Cc1nc2c3c(ccc2[nH]c1=O)C(=O)c1ccccc1C3=O`, for which the TGI with M14 melanoma is more than 100 µM; in the assay with MOLT-4 leukemia, 99.6 µM; with NCI-H23 lung, 47.2 µM; with OVCAR-4 ovarian it was 98 µM; in the assay on SK-MEL-5 melanoma, 13.6 µM; in the assay with U251 CNS, 35.9 µM. Further, the TGI with UO-31 renal is more than 100 µM.
Take `OCC1=CC(NC2CC(CO)C(O)C(O)C2O)C(O)C(O)C1O` (stereo not given): the TGI in the assay with M14 melanoma, in the assay with MOLT-4 leukemia, with NCI-H23 lung, with U251 CNS and in the assay with UO-31 renal was more than 100 µM throughout.
As to `CCN(CC)CCSc1c2ccccc2nc2cc(NCC(=O)Nc3ccccc3-c3ccccc3NC(=O)CNc3ccc4c(SCCN(CC)CC)c5ccccc5nc4c3)ccc12`, the TGI in the assay with M14 melanoma was more than 100 µM; in the assay on MOLT-4 leukemia it was more than 76.9 µM; with NCI-H23 lung, more than 100 µM; in the assay with OVCAR-4 ovarian, more than 100 µM; with SK-MEL-5 melanoma it was more than 100 µM; in the assay with U251 CNS, more than 100 µM. In the assay with UO-31 renal, the TGI is more than 100 µM.
For `O=C(CC(=O)c1cccc2ccccc12)C(=O)Nc1ccc(Cl)cc1`, the TGI in the assay with M14 melanoma, in the assay with MOLT-4 leukemia, in the assay with NCI-H23 lung, in the assay with OVCAR-4 ovarian, in the assay with SK-MEL-5 melanoma and in the assay on U251 CNS was more than 100 µM throughout. The same compound had a TGI in the assay with UO-31 renal of more than 100 µM.
Take `CCOC(=O)CCC1(C(=O)OCC)CCCCC1=O` (stereo not given): the TGI in the assay on MOLT-4 leukemia, with NCI-H23 lung, with SK-MEL-5 melanoma, with U251 CNS and with UO-31 renal was more than 100 µM each time.
Turning to `Cc1ccc(S(=O)(=O)OC[C@@H]2CO2)cc1`, the TGI with M14 melanoma, in the assay with MOLT-4 leukemia, with NCI-H23 lung, with OVCAR-4 ovarian, with SK-MEL-5 melanoma and with UO-31 renal was more than 100 µM in each case.
Turning to `COc1ccccc1N1C(=O)C2c3[nH]c4ccccc4c3C3CCC(C(C)(C)C)CC3C2C1=O` (stereo not given), the TGI in the assay with M14 melanoma, with MOLT-4 leukemia, with NCI-H23 lung, with OVCAR-4 ovarian, in the assay with SK-MEL-5 melanoma and in the assay with U251 CNS was more than 100 µM in each case. Besides, in the assay with UO-31 renal, the TGI was more than 100 µM.
Consider `CC1(C(=O)O)CCC[C@@]2(C)C1CC[C@@]1(C)c3cocc3CCC21` (stereo not given in full), for which the TGI with M14 melanoma, with MOLT-4 leukemia, with NCI-H23 lung, in the assay with OVCAR-4 ovarian, in the assay on SK-MEL-5 melanoma and with U251 CNS was more than 100 µM in each case. The TGI with UO-31 renal was more than 100 µM.
Consider `Cc1c(C(=O)CC(=O)C(=O)Nc2ccccc2C(F)(F)F)[n+](=O)c2ccccc2n1[O-]`, for which the TGI with M14 melanoma was 39 µM; in the assay with NCI-H23 lung, 44.3 µM; in the assay with OVCAR-4 ovarian it was 42 µM; in the assay with SK-MEL-5 melanoma, 30.4 µM; in the assay on U251 CNS, 49 µM; in the assay on UO-31 renal, more than 100 µM.
As to `CC(=O)[CH-]C(=O)c1ccccc1.CC(=O)[CH-]C(=O)c1ccccc1.CN(C)c1ccc([O-])cc1.CN(C)c1ccc([O-])cc1.Cl.[Ti+4]`, the GI50 was 17.5 µM in the assay on M14 melanoma; 21.1 µM with NCI-H23 lung; 40 µM in the assay with SK-MEL-5 melanoma; more than 31.6 µM in the assay with U251 CNS; 17.9 µM in the assay on UO-31 renal. Moreover, the TGI was more than 31.6 µM in the assay with M14 melanoma; more than 31.6 µM in the assay with NCI-H23 lung; more than 88 µM in the assay on SK-MEL-5 melanoma; more than 31.6 µM with U251 CNS; more than 31.6 µM in the assay on UO-31 renal.
Take `NC1=NCCC1(c1ccccc1)c1ccccn1` (stereo not given): the TGI in the assay on M14 melanoma, in the assay with MOLT-4 leukemia, with NCI-H23 lung, with OVCAR-4 ovarian, in the assay on SK-MEL-5 melanoma and in the assay with U251 CNS was more than 100 µM throughout.
With `Nc1ccccc1S(=O)(=O)N(CC(=O)O)c1ccccc1`, the TGI with M14 melanoma, with MOLT-4 leukemia, in the assay with NCI-H23 lung, with OVCAR-4 ovarian, in the assay on SK-MEL-5 melanoma and in the assay with U251 CNS was more than 100 µM each time. In the assay on UO-31 renal, this compound returned a TGI of more than 100 µM.
As for `CCC[CH2][Sn]([CH2]CCC)([S]c1cccc2cccnc12)[S]c1cccc2cccnc12`, the GI50 was 0.175 µM in the assay with M14 melanoma; 0.109 µM with MOLT-4 leukemia; 0.161 µM in the assay on NCI-H23 lung; 0.135 µM with OVCAR-4 ovarian; 0.201 µM with SK-MEL-5 melanoma; 0.197 µM with U251 CNS. The GI50 with UO-31 renal is 0.189 µM. Further, the TGI worked out at 0.339 µM in the assay with M14 melanoma; 0.397 µM in the assay with MOLT-4 leukemia; 0.422 µM in the assay on NCI-H23 lung; 0.307 µM with OVCAR-4 ovarian; 0.534 µM with SK-MEL-5 melanoma; 0.409 µM in the assay on U251 CNS. Besides, the TGI with UO-31 renal came to 0.345 µM.
On to `C1=C2/CC[C@H](Sc3ccccc3)C2C2(CCCCC/1)OCCO2` (stereo not given in full), for which the TGI was more than 100 µM in the assay with MOLT-4 leukemia, 63.3 µM in the assay with NCI-H23 lung and more than 100 µM with U251 CNS.
Turning to `O=C(O)CCNCCCNCCC(=O)O`, the TGI in the assay with M14 melanoma, with MOLT-4 leukemia, in the assay on NCI-H23 lung, with OVCAR-4 ovarian, in the assay with SK-MEL-5 melanoma and in the assay with U251 CNS was more than 100 µM each time.
As for `Cc1c(C(=O)C/C(=N/NC(=O)c2ccccc2O)C(=O)Nc2ccccc2C(C)C)[n+](=O)c2ccccc2n1[O-]`, the TGI was more than 100 µM in the assay with M14 melanoma; 21.9 µM with MOLT-4 leukemia; 52.8 µM in the assay with NCI-H23 lung; more than 100 µM in the assay on OVCAR-4 ovarian; more than 100 µM in the assay on SK-MEL-5 melanoma; more than 100 µM with U251 CNS.
On to `COC(=O)/C(C#N)=C1\NC(=O)c2ccccc21`, for which the TGI in the assay with M14 melanoma, with MOLT-4 leukemia, with NCI-H23 lung, with OVCAR-4 ovarian, in the assay on SK-MEL-5 melanoma and in the assay on U251 CNS was more than 100 µM throughout. In addition, the TGI with UO-31 renal was more than 100 µM.
Take `CNC(=S)OCCC(C)CCCC(C)C` (stereo not given): the TGI in the assay on M14 melanoma worked out at 35.2 µM; in the assay on MOLT-4 leukemia it was 27.1 µM; in the assay on NCI-H23 lung, 36.6 µM; in the assay on OVCAR-4 ovarian it was 30.9 µM; in the assay on SK-MEL-5 melanoma, 31.6 µM; with U251 CNS, 30.1 µM. This compound returned a TGI in the assay with UO-31 renal of 20.7 µM.
As to `CCCC1C(=O)CCc2c(OC)ccc(OC)c21` (stereo not given), the TGI in the assay with M14 melanoma, with MOLT-4 leukemia, in the assay with NCI-H23 lung, in the assay with OVCAR-4 ovarian, in the assay on SK-MEL-5 melanoma and with U251 CNS was more than 100 µM each time. In the assay on UO-31 renal, the TGI is more than 100 µM.
Consider `COC(=O)C1(C(C)C)CCc2c(OC)ccc(OC)c2C1=O` (stereo not given), for which the TGI with M14 melanoma, in the assay with MOLT-4 leukemia, in the assay with OVCAR-4 ovarian, in the assay with SK-MEL-5 melanoma, with U251 CNS and in the assay on UO-31 renal was more than 100 µM in each case.
In the case of `Cc1cc(N(CCC#N)CCC#N)ccc1N=Nc1ccc(S(N)(=O)=O)cc1`, the TGI with M14 melanoma, in the assay with MOLT-4 leukemia, with NCI-H23 lung, in the assay with OVCAR-4 ovarian, in the assay with SK-MEL-5 melanoma and in the assay on U251 CNS was more than 100 µM each time. For the same compound, the TGI with UO-31 renal is more than 100 µM.
With `CCOC(=O)C(C)(C)Oc1ccc2c(-c3ccccc3)cc(=O)oc2c1`, the TGI in the assay with M14 melanoma is more than 100 µM; in the assay on MOLT-4 leukemia, 54.6 µM; in the assay with NCI-H23 lung, more than 100 µM; in the assay with OVCAR-4 ovarian, more than 100 µM; with SK-MEL-5 melanoma it was 26.9 µM; with U251 CNS, more than 100 µM. This compound also came in with a TGI in the assay on UO-31 renal of 76 µM.
Turning to `CCCCCCCCCCCC(=O)OCCOCCOCCOCCOCCOCc1ccccc1`, the TGI in the assay with M14 melanoma, in the assay with MOLT-4 leukemia, in the assay on NCI-H23 lung, with OVCAR-4 ovarian, in the assay on SK-MEL-5 melanoma and in the assay with U251 CNS was more than 100 µM each time. Moreover, the TGI with UO-31 renal was more than 100 µM.
As to `O=C(CCc1nc(=S)[nH][nH]1)Nc1ccc(Cl)c(Cl)c1`, the TGI is more than 100 µM in the assay with M14 melanoma; more than 100 µM in the assay with MOLT-4 leukemia; more than 100 µM in the assay on NCI-H23 lung; more than 100 µM in the assay with OVCAR-4 ovarian; 55.9 µM in the assay with SK-MEL-5 melanoma; more than 100 µM in the assay with U251 CNS. Moreover, the TGI in the assay on UO-31 renal is more than 100 µM.
Consider `CN(C)C(=S)N=C(Nc1ccccc1)Nc1ccccc1`, for which the TGI with M14 melanoma, with MOLT-4 leukemia, with NCI-H23 lung, with OVCAR-4 ovarian, in the assay on SK-MEL-5 melanoma and in the assay on U251 CNS was more than 100 µM in each case. Further, the TGI in the assay with UO-31 renal is more than 100 µM.
With `Cc1cc(NS(=O)(=O)c2ccc(Nc3c4ccccc4nc4c(C(=O)N5CCN(CCOS(C)(=O)=O)CC5)cccc34)cc2)no1`, the TGI in the assay on M14 melanoma, with MOLT-4 leukemia, in the assay with NCI-H23 lung, in the assay on OVCAR-4 ovarian, with SK-MEL-5 melanoma and in the assay on U251 CNS was more than 100 µM in each case. The compound further returned a TGI in the assay with UO-31 renal of more than 100 µM.
